Results on 13 compounds are retold here after US10045968B2, “Bicyclic compound, production and use thereof” (TOBIRA THERAPEUTICS, INC., priority 2001, dated 2018).

What is called melting point is the temperature, or range, at which the solid turns liquid.

The structures appear in SMILES notation.

For one data set, the target named is T1, human CCR5 (Homo sapiens, UniProt P51681).
T1 construct: expressed in transfected cells; host or cells: CHO-K1 cells, stably transfected with pCKR5 (pcDNA3.1 backbone), Geneticin-selected
T1 sequence (P51681 whole entry): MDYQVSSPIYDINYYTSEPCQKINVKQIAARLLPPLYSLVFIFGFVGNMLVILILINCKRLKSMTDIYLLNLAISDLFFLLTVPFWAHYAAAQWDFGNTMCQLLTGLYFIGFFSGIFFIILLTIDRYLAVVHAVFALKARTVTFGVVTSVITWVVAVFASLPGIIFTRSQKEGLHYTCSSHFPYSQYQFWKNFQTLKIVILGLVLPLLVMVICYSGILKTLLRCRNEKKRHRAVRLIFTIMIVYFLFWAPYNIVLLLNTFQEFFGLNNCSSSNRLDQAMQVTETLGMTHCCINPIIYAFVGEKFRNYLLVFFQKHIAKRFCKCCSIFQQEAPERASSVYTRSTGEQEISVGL
The experiment in a line: Inhibition of [125I]-RANTES binding to CCR5/CHO cells (CCR5 antagonist activity). The conditions noted are these: 40 min, test compound 1 μM, 100 pM [125I]-RANTES as ligand, room temperature, read-out: Binding Inhibitory Ratio (%). Here is the method:
(1) Cloning of Human CCR5 Chemokine Receptor Cloning of CCR5 gene was conducted from human spleen cDNA by PCR method. Using cDNA (0.5 ng) from spleen (Toyobo, QUICK-Clone cDNA) as a genetic template, primer sets prepared by referring to CCR5 gene nucleotide sequence described by Samson et al. (Biochemistry 35 (11), 3362-3367 (1996), i.e., (2) Preparation of Expression Plasmid of Human CCR5 […] The DNA fragments and an expression plasmid for animal cells pcDN A3.1 (Funakoshi), which was previously digested by XbaI and BamHI, were mixed and ligated by DNA Ligation Kit Ver. 2 (Takara Shuzo). Transformation of E. coli JM109 competent cells (Takara Shuzo) gave plasmid pCKR5. (3) Introduction of the Human CCR5 Expression Plasmid into CHO-K1 Cells and Expression Thereof […] The cells were washed with PBS (Lifetech Oriental), centrifuged (1000 rpm, 5 minutes), and resuspended in PBS. The DNA was introduced into the cells using Gene Pulser (BioRad) according to the following conditions. […] The cells were diluted to a concentration of 10^4 cells/ml, and inoculated in 96 well plate (Becton Dickinson), to obtain Geneticin-resistant cells. The Geneticin-resistant cells ware grown in 96 well plate (Becton Dickinson), and CCR5 expressing cells were selected from the resistant cells. Namely, in an assay buffer, (Ham F12 medium containing 0.5% BSA, and 20 mM HEPES (Wako Pure Chemical Ind., pH 7.2)), containing 200 pM [^125I]-RANTES (Amersham) as a ligand, the cells were subjected to binding reaction at room temperature for 40 minutes. The well plate containing the cells was washed with ice-cooled PBS, added with 1M NaOH in an amount of 50 μl/well and stirred. The cells to which the ligand bound specifically, i.e., CCR5/CHO cells, were selected by measurement of radioactivity by γ-counter. (4) Evaluation of Compounds Based on CCR5 Antagonist Activity The CCR5/CHO cells were inoculated in 96 well microplate at a concentration of 5×10^4 cells/well, and grown for 24 hours. After removal of the medium by aspiration, to each well was added an assay buffer containing a test compound (1 μM), and (^125I)/RANTES (Amersham) used as a ligand at a concentration of 100 pM. The mixture was subjected to the reaction at room temperature for 40 minutes. After removal of the assay buffer by aspiration, each well was washed with cooled PBS twice. Then, 200 μl MicroScint 20 (Packerd) was added to each well, and the radioactivity of each well was measured by TopCount (Packard). According to the method above, inhibitory ratios to CCR5 binding of the test compounds were determined.
Consider `CCCCOCCOc1ccc(-c2ccc3c(c2)C=C(C(=O)Nc2ccc([S+]([O-])Cc4cncn4CCC)cc2)CCCN3c2ccccc2)cc1` (centres unmarked) [Compound 35, 8-[4-(2-butoxyethoxy)phenyl]-1-phenyl-N-[4-[[[1-propylimidazol-5-yl]methyl]sulfinyl]phenyl]-1,2,3,4-tetrahydro-1-benzoazocine-5-carboxamide], for which the inhibition at 1 µM came to 100%.
Same read-out and setting: as for `CCCCOCCOc1ccc(-c2ccc3c(c2)C=C(C(=O)Nc2ccc(SCc4c(C)ncn4CCC)cc2)CCCN3CC(C)C)cc1` [Compound 36, 8-[4-(2-butoxyethoxy)phenyl]-1-isobutyl-N-[4-[[[4-methyl-1-propylimidazol-5-yl]methyl]sulfanyl]phenyl]-1,2,3,4-tetrahydro-1-benzoazocine-5-carboxamide], the figure is 97%; as for `CCCCOCCOc1ccc(-c2ccc3c(c2)C=C(C(=O)Nc2ccc([S+]([O-])Cc4c(C)ncn4CCC)cc2)CCCN3CC(C)C)cc1` (centres unmarked) [Compound 37, 8-[4-(2-butoxyethoxy)phenyl]-1-isobutyl-N-[4-[[[4-methyl-1-propylimidazol-5-yl]methyl]sulfinyl]phenyl]-1,2,3,4-tetrahydro-1-benzoazocine-5-carboxamide], 100%; as for `CCCCOCCOc1ccc(-c2ccc3c(c2)C=C(C(=O)Nc2ccc(SCc4cncn4CCC)c(C)c2)CCCN3CC(C)C)cc1` [Compound 38, 8-[4-(2-butoxyethoxy)phenyl]-1-isobutyl-N-[3-methyl-4-[[[1-propylimidazol-5-yl]methyl]sulfanyl]phenyl]-1,2,3,4-tetrahydro-1-benzoazocine-5-carboxamide], 94%.
Same read-out and setting: the figure for `CCCCOCCOc1ccc(-c2ccc3c(c2)C=C(C(=O)Nc2ccc([S+]([O-])Cc4cncn4CCC)c(C)c2)CCCN3CC(C)C)cc1` (centres unmarked) [Compound 39, 8-[4-(2-butoxyethoxy)phenyl]-1-isobutyl-N-[3-methyl-4-[[[1-propylimidazol-5-yl]methyl]sulfinyl]phenyl]-1,2,3,4-tetrahydro-1-benzoazocine-5-carboxamide] is 99%.
The same measure, in the same setting: the figure for `CCCCOCCOc1ccc(-c2ccc3c(c2)C=C(C(=O)Nc2ccc(CN(C)C4CCOCC4)cc2)CCCN3CC(C)C)cc1` [Compound 42, 8-(4-(2-butoxyethoxy)phenyl)-1-isobutyl-N-(4-((methyl(tetrahydro-2H-pyran-4-yl)amino)methyl)phenyl)-1,2,3,4-tetrahydro-1-benzoazocine-5-carboxamide] is 90%; for `CCCCOCCOc1ccc(-c2ccc3c(c2)C=C(C(=O)Nc2ccc(SCc4nncn4CCC)cc2)CCCN3CC(C)C)cc1` [Compound 46, 8-[4-(2-butoxyethoxy)phenyl]-1-isobutyl-N-[4-[[(4-propyl-4H-1,2,4-triazol-3-yl)methyl]thio]phenyl]-1,2,3,4-tetrahydro-1-benzazocine-5-carboxamide] it is 99%; for `CCCCOCCOc1ccc(-c2ccc3c(c2)C=C(C(=O)Nc2ccc([S+]([O-])Cc4nncn4CCC)cc2)CCCN3CCC)cc1` (centres unmarked) [Compound 50, 8-[4-(2-butoxyethoxy)phenyl]-1-propyl-N-[4-[[(4-propyl-4H-1,2,4-triazol-3-yl)methyl]sulfinyl]phenyl]-1,2,3,4-tetrahydro-1-benzazocine-5-carboxamide] it is 93%.

Still in this data set, the particulars now being: test compound 1 μM, 100 pM [125I]-RANTES as ligand, room temperature, 40 minutes.
`CCCOCCOc1ccc(-c2ccc3c(c2)C=C(C(=O)Nc2ccc([S@@+]([O-])Cc4cncn4CCC)cc2)CCCN3CCC)cc1.CS(=O)(=O)O` [Compound 45, (S)-(−)-8-[4-(2-propoxyethoxy)phenyl]-1-propyl-N-[4-[[(1-propyl-1H-imidazol-5-yl)methyl]sulfinyl]phenyl]-1,2,3,4-tetrahydro-1-benzoazocine-5-carboxamide/methanesulfonate]: the “Binding Inhibitory Ratio (%)” value was found to be 96%.

Tested on in the next data set: not given
Assay: not given
Settings: not given
With `CCCCOCCOc1ccc(-c2ccc3c(c2)C=C(C(=O)Nc2ccc(SCc4nccn4CCCC(=O)OCC)cc2)CCCN3CC(C)C)cc1` [Compound 33, ethyl 4-(2-(((4-(((8-(4-(2-butoxyethoxy)phenyl)-1-isobutyl-1,2,3,4-tetrahydro-1-benzoazocine-5-yl)carbonyl)amino)phenyl)sulfanyl)-methyl)imidazol-1-yl)butanoate], the melting point was in the range of 130 to 131 °C.
The same measure, in the same setting: the figure for `CCCCOCCOc1ccc(-c2ccc3c(c2)C=C(C(=O)Nc2ccc(SCc4nncn4CCC)cc2)CCCN3CC(C)C)cc1` [Compound 46, 8-[4-(2-butoxyethoxy)phenyl]-1-isobutyl-N-[4-[[(4-propyl-4H-1,2,4-triazol-3-yl)methyl]thio]phenyl]-1,2,3,4-tetrahydro-1-benzazocine-5-carboxamide] is 122 to 126 °C; for `CCCCOCCOc1ccc(-c2ccc3c(c2)C=C(C(=O)Nc2ccc([S+]([O-])Cc4nncn4CCC)cc2)CCCN3CC(C)C)cc1` (centres unmarked) [Compound 47, 8-[4-(2-butoxyethoxy)phenyl]-1-isobutyl-N-[4-[[(4-propyl-4H-1,2,4-triazol-3-yl)methyl]sulfinyl]phenyl]-1,2,3,4-tetrahydro-1-benzazocin-5-carboxamide] it is 105 to 110 °C; for `CCCCOCCOc1ccc(-c2ccc3c(c2)C=C(C(=O)Nc2ccc([S+]([O-])Cc4nncn4CCC)cc2)CCCN3CCC)cc1` (centres unmarked) [Compound 51, 8-[4-(2-butoxyethoxy)phenyl]-1-propyl-N-[4-[[(4-propyl-4H-1,2,4-triazol-3-yl)methyl]sulfinyl]phenyl]-1,2,3,4-tetrahydro-1-benzazocine-5-carboxamide] it is 167 to 170 °C.
Still for that read-out and setting: the figure for `CCCCOCCOc1ccc(-c2ccc3c(c2)C=C(C(=O)Nc2ccc([S+]([O-])Cc4nccn4CCCC(=O)OCC)cc2)CCCN3CC(C)C)cc1` (centres unmarked) [Compound 54, ethyl 4-(2-(((4-(((8-(4-(2-butoxyethoxy)phenyl)-1-isobutyl-1,2,3,4-tetrahydro-1-benzazocine-5-yl)carbonyl)amino)phenyl)sulfinyl)methyl)imidazol-1-yl)butanoate] is 133.5 to 134.5 °C.
